Biological target: T1, Glutamate Dehydrogenase (GDH) (Rattus norvegicus, UniProt P10860)
T1 construct: only the supernatant was collected and transferred to a new tube to obtain a cell lysate; endogenous in cells; host or cells: INS-1 cell line (lysate)
Assay: Enzyme activation experiment: GDH Activity Colorimetric Assay Kit on INS-1 cell lysate
Format: biochemical
Conditions: vehicle-treated group set to 1
Method: Enzyme Activation Experiment
A sufficient amount of cells was obtained by culturing the INS-1 cell line under general cell culture condition (37° C. 5% CO2). Immediately before use in the experiment, a culture dish of the INS-1 cells was placed on ice, the culture medium was removed, and then washed with cold phosphate-buffered saline (PBS) (WELGEME, LB 001-02) to obtain a cell pellet.
To the harvested cell pellet, an appropriate amount of ice-cold Assay Buffer contained in the Glutamate Dehydrogenase (GDH) Activity Colorimetric Assay Kit (BioVision, K729-100) was added and then homogenized in the tube.
The tube was subjected to centrifuge in a condition of 13,000 g, 4° C. for 10 minutes, and then the pellet was discarded, and only the supernatant was collected and transferred to a new tube to obtain a cell lysate. Then, the protein concentration of the cell lysate was measured using Pierce™ BCA Protein Assay kit (Thermo, 23225).
By referring to the measured protein concentration, the cell lysate was prepared by diluting its concentration to 30 μg/50 μL or 100 μg/50 μL using the Assay Buffer.
The prepared cell lysate+vehicle or compound+Reaction mix was added according to the volume determined in the protocol of the Glutamate Dehydrogenase (GDH) Activity Colorimetric Assay Kit and reacted at 37° C., and the absorbance at 450 nm was measured using a kinetic method.
The GDH activity was calculated according to the calculation formula shown in the Assay Kit, and then the activity of the group treated with the vehicle was set to 1, and the folds of the remaining groups were calculated, and the results are shown in Table 2 below and FIG. 1.

T1 sequence (P10860 54-558): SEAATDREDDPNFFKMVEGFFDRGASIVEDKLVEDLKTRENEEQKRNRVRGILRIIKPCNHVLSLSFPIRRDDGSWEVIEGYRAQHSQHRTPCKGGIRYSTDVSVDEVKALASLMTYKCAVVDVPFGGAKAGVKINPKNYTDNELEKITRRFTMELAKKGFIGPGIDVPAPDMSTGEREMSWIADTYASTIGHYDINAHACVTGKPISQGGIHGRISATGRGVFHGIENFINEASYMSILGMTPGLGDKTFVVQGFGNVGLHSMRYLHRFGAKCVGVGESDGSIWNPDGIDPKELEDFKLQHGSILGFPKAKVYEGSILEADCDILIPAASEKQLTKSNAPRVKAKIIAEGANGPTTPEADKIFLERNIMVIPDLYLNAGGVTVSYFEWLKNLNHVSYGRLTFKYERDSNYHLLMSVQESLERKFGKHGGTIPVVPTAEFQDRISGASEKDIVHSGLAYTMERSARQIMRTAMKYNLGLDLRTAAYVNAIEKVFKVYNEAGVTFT

SMILES	Enzyme activity (fold) (compound concentration 0.2 μM)	Enzyme activity (fold) (compound concentration 2 μM)
COc1cc(C(=O)Nc2ccc(-c3ccnc(N)n3)cc2)ccc1Cl [Compound 7, N-(4-(2-aminopyrimidin-4-yl)phenyl)-4-chloro-3-methoxybenzamide]	1.94	3.23
Nc1nccc(-c2ccc(NC(=O)c3ccc(Br)cc3)cc2)n1 [Compound 6, N-(4-(2-aminopyrimidin-4-yl)phenyl)-4-bromobenzamide]	2.14	6.93

Second part, the compound after the results:

Enzyme activity (fold) (compound concentration 0.2 μM)	Enzyme activity (fold) (compound concentration 2 μM)	SMILES
2.08	10.83	Nc1nccc(-c2ccc(NC(=O)c3cccc(C(F)(F)F)c3F)cc2)n1 [Compound 10, N-(4-(2-aminopyrimidin-4-yl)phenyl)-2-fluoro-3-(trifluoromethyl)benzamide]
1.34	11.05	Nc1nccc(-c2ccc(NC(=O)c3ccc(Cl)cc3)cc2)n1 [Compound 8, N-(4-(2-aminopyrimidin-4-yl)phenyl)-4-chlorobenzamide]
1.13	6.43	Nc1nccc(-c2ccc(NC(=O)c3cc(Cl)cc(Cl)c3)cc2)n1 [Compound 9, N-(4-(2-aminopyrimidin-4-yl)phenyl)-3,5-dichlorobenzamide]

— patent US12208098B2, “4-carbonylamino-4-phenylpyrimidine compound or pharmaceutically acceptable salt thereof” (Gachon University Of Industry-Academic Cooperation …, priority 2018, dated 2025)
